One data set has as its target T1, human mGluR2 receptor (Homo sapiens, UniProt Q14416).
T1 construct: expressed in transfected cells; host or cells: CHO cells (membranes)
The data set can be described thus: [35S]GTPγS binding assay (PAM). As to conditions: in presence of glutamate at predetermined EC20, membranes from CHO cells transfected with human mGluR2; for EC50: read-out: GTPγS -hR2 PAM pEC50 (converted). Format: biochemical. The procedure: [^35S]GTPγS binding assay
The [^35S]GTPγS binding assay is a functional membrane-based assay used to study G-protein coupled receptor (GPCR) function whereby incorporation of a non-hydrolysable form of GTP, [^35S]GTPγS (guanosine 5′-triphosphate, labelled with […] ^35S), is measured.
CHO-cells were cultured to pre-confluence and stimulated with 5 mM butyrate for 24 h, prior to washing in PBS, and then collected by scraping in homogenisation buffer (50 mM Tris-HCl buffer, pH 7.4, 4° C.). Cell lysates were homogenized briefly using an ultra-turrax homogenizer. The homogenate was centrifuged at 16,000 RPM (Sorvall RC-5C plus rotor SS-34) for 10 minutes and the supernatant discarded. The pellet was resuspended in 5 mM Tris-HCl, pH 7.4 and centrifuged again (18,000 RPM, 20 min, 4° C.). The final pellet was resuspended in 50 mM Tris-HCl, pH 7.4 and stored at −80° C. in appropriate aliquots before use. Protein concentration was determined by the Bradford method (Bio-Rad, USA) with bovine serum albumin as standard.
Measurement of mGluR2 positive allosteric modulatory activity of test compounds was performed as follows. Test compounds and glutamate were diluted in assay buffer containing 10 mM HEPES acid, 10 mM HEPES salt, pH 7.4, 100 mM NaCl, 3 mM MgCl2 and 10 μM GDP. Human mGlu2 receptor-containing membranes were thawed on ice and diluted in assay buffer supplemented with 14 μg/ml saponin. Membranes were pre-incubated with compound alone or together with a predefined (˜EC20) concentration of glutamate (PAM assay) for 30 min at 30° C. After addition of [^35S]GTPγS (f.c. 0.1 nM) microplates were shaken briefly and further incubated to allow [^35S]GTPγS incorporation on activation (30 minutes, 30° C.). Final assay mixtures contained 7 μg of membrane protein in 10 mM HEPES acid, 10 mM HEPES salt, pH 7.4, 100 mM NaCl, 3 mM MgCl2, 10 μM GDP and 10 μg/ml saponin. Total reaction volume was […] Reactions were terminated by rapid filtration through Unifilter-96 GF/B filter plates (Packard, Meriden, Conn.) using a 96-well Packard filtermate harvester. Filters were washed 6 times with ice-cold 10 mM NaH2PO4/10 mM Na2HPO4, pH 7.4. Filters were then air-dried, and 40 μl of liquid scintillation cocktail (Microscint-O) was added to each well. Membrane-bound radioactivity was counted in a Microplate Scintillation and Luminescence Counter from Packard.
obtained in the presence of EC20 of mGluR2 agonist glutamate to determine positive allosteric modulation (PAM)—were generated using the Lexis software interface (developed at J&J). Data were calculated as % of the control glutamate response, defined as the maximal response that is generated upon addition of glutamate alone. Sigmoid concentration-response curves plotting these percentages versus the log concentration of the test compound were analyzed using non-linear regression analysis. The concentration producing half-maximal effect is then calculated as EC50.
All compounds were tested in presence of mGluR2 agonist, glutamate at a predetermined EC20 concentration, to determine positive allosteric modulation (GTPγS-PAM). pEC50 values were calculated from a concentration-response experiment of at least 10 concentrations.
(In general: GTPγS is a poorly hydrolysed GTP analogue; its binding reports G protein activation.)

For a further data set, the system named is male Wiga Wistar rats. The data set can be described thus: Conditioned avoidance response (CAR) test. Format: in vivo. To be noted: criterion median avoidance latency >8 s; for ED50: Rattus norvegicus, po, read-out: ED50 CAR-Inh. The text has this: The apparatus consisted of an inner box surrounded by an outer box. The inner box was composed of four walls of transparent, synthetic material (length×width×height: 30×30×30 cm), an open top, and a grid floor made of 15 pairs of iron bars (2 mm diameter; 6 mm inter-bar distance). Odd and even bars were connected with a source of alternative current (1.0 mA; Coulbourn Instruments Solid State Shocker/Distributor), which could be interrupted by a switch. The outer box was composed of the same material (length×width×height: 40×40×36 cm), also with an open top, with a distance of 5 cm between the inner and outer box on all sides. To decrease the amount of environmental stimuli, three walls of the outer box were made non-transparent. The front wall was left transparent to allow the necessary inspection of the animal during the test. The upper edge of the outer and inner box served as a target for the rats on which to jump with fore- and hind-paws, respectively.
From their arrival in the laboratory on the experimental day, male Wiga Wistar rats (230±30 g) were housed in individual cages provided with bedding material.
Latency to avoidance was recorded. The median avoidance response obtained over the three experimental sessions for each rat were used for further calculations.

For another data set, the system named is male NMRI mice. The data set can be described thus: Phencyclidine (PCP)-induced hyperlocomotion in mice. Format: in vivo. As to conditions: for ED50: Mus musculus; for ED50 PCP-Inh. (estimated): estimated ED50 (n = 3 per dose; 4-fold separation between doses). The procedure: On the day of experiments, the mice were brought into the procedural room. They were housed individually and allowed to acclimate for at least a half hour prior to testing. Although the studies were conducted during the light cycle (from 8:00 to 16:00 h), the procedure room was only sparsely lit (3 to 30 LUX) to provide better contrast for the video tracking. Local lighting was used for the injection procedures. During each trial, an individual mouse was placed in an open field arena (grey PVC cylinder with a height of 40 cm and a diameter of 22.5 cm). Each arena was placed on an infrared LED (8×8 LEDs)-lit box (white PVC squared box; 40×40 cm^2; height 12.5 cm). Each mouse was placed in the center of the arena and allowed to explore freely for 30 min. After each trial, the arena was cleaned with a wet and subsequently with a dry cleaning cloth. An infrared sensitive tube camera and a white light source (in arena: 4-7 LUX) were mounted to the ceiling above the observation chamber to record and input activity to a computer. Animal behavior was recorded and analyzed using the Noldus Ethovision XT Video Tracking System (Version 3.1; Noldus, Wageningen, The Netherlands). The total distance traveled (cm) was calculated. Data were then exported to data management systems for further analysis and reporting.
Test compound or solvent was administered at a pre-defined time before measurement (standard: 30 min) to male NMRI mice that were challenged with phencyclidine (PCP; 5 mg/kg, s.c.) 30 min before measurement. Activity was measured for a period of 30 min.

The subject of another data set is Male mice (C57BL/6). The data set can be described thus: Reversal of memantine-induced brain activation ([14C]2DG uptake) in mice. To be noted: for L.A.D. (lowest active dose) for significant (p<0.05) reduction of 2DG uptake in the hippocampus compared to memantine response: mice, s.c., memantine 20 mg/kg s.c. Type of data set: in vivo. As to the method: Reversal of Memantine-Induced Brain Activation in Mice NMDA receptor hypofunction is hypothesized to be involved in schizophrenia.
Autoradiographic assessment of radiolabeled [^14C]-2-deoxyglucose ([^14C]2DG) uptake is commonly used to investigate brain activation. In humans, cerebral blood flow is increased in specific brain regions after administration of a subanaesthetic dose of ketamine.
Male mice (C57BL/6, weight 24-28 g, fasted overnight; n=10 animals per group) were treated with vehicle or test compound (s.c.) in randomized order (t=0 min). Memantine (20 mg/kg, s.c.) was injected 30 min later (t=30 min). At t=45 min, [^14C]2DG (0.16 μCi/g) was administered intraperitoneally (i.p.), followed by a 45 min uptake period. Animals were decapitated (t=90 min), plasma glucose levels measured, the brain removed, rapidly frozen and stored at −20° C. until sectioned. Brain sections were exposed together to a precalibrated [^14C]standard on film, which was developed after four days of exposure. Local tissue [^14C]concentration (nCi/mg tissue equivalent—TEQ-) in each region of interest was determined.
Data was analyzed statistically using a two-way ANOVA analysis followed by post-hoc tests (memantine response versus reversal by the compound). The results are shown in table 5 below, expressed as lowest active dose (L.A.D.) required to exert a statistically significant (p<0.05) reduction of 2DG uptake in the hippocampus compared to memantine response.

Setting [1] is: mice, PCP 5 mg/kg s.c., criterion total distance <5500 counts, not marked as oral, read-out: ED50 PCP-Inh.
The mark [2] stands for this setting: sc, read-out: ED50 PCP-Inh. (estimated).

This is an account of results in patent publication US8716480B2, “7-aryl-1,2,4-triazolo[4,3-a]pyridine derivatives and their use as positive allosteric modulators of mGluR2 receptors” (Janssen Pharmaceuticals, Inc., priority 2009, dated 2014).

Molecules are shown by their SMILES. Where two headings read alike, the source gives them in different places. Marks after values point to notes of the source that are not given here.

A word on the ED50: it is the dose at which the effect has come halfway, by size or by number of responders. What is called melting point is the temperature of the solid-liquid transition.

T1 sequence (Q14416 19-872): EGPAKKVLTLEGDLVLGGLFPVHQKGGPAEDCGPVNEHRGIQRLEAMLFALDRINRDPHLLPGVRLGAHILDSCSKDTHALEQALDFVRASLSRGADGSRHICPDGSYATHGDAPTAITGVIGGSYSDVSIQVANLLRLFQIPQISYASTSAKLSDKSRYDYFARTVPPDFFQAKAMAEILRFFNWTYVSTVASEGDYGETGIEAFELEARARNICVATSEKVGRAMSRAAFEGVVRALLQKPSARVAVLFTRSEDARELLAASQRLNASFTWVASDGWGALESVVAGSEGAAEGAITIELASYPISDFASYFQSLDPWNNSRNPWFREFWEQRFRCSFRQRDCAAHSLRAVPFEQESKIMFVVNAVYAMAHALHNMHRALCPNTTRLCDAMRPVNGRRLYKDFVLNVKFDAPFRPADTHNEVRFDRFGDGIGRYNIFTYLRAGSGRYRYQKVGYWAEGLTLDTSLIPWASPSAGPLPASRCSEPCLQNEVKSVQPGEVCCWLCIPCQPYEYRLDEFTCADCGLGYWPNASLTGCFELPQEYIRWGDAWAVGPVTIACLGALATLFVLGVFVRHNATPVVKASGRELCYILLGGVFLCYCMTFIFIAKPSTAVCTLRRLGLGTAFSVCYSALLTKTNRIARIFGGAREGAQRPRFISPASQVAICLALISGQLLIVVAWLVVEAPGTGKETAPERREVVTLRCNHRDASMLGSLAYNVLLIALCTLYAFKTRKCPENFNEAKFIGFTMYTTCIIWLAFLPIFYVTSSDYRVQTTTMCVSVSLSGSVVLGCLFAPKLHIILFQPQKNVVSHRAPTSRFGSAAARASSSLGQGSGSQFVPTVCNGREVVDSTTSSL

Turning to `Cc1ccc(Oc2ccc(-c3ccn4c(CC(F)(F)F)nnc4c3Cl)cc2F)c(C)n1` [Co. No. 3, 7-[3-Fluoro-4-(2′,6′-dimethyl-pyridin-3-yloxy)-phenyl]-8-chloro-3-(2,2,2-trifluoro-ethyl)-1,2,4-triazolo[4,3-a]pyridine], the melting point worked out at 164.5 °C. On human mGluR2 receptor, the EC50 is 45.7 nM. The ED50 with male Wiga Wistar rats (compound administered orally) worked out at 24.6 mg/kg. Moreover, the ED50 in the data set with male Wiga Wistar rats (not marked as oral) is 18.6 mg/kg. Moreover, the ED50 with male NMRI mice (setting [1]) was 16.2 mg/kg.

For the compound `FC(F)(F)Cc1nnc2c(Cl)c(-c3ccc(OC4CCOCC4)c(Cl)c3)ccn12` [Co. No. 7, 7-(3-Chloro-4-pyranyl-4-oxy-phenyl)-8-chloro-3-(2,2,2-trifluoro-ethyl)-1,2,4-triazolo[4,3-a]pyridine], the melting point came out at 186.7 °C. Also, the EC50 on human mGluR2 receptor is 174 nM. For the same compound, the ED50 in the data set with male NMRI mice (setting [1]) was 10 mg/kg.

Take `Cc1ccc(Oc2ccc(-c3ccn4c(CC5CC5)nnc4c3Cl)cc2F)c(C)n1` [Co. No. 14, 8-Chloro-3-cyclopropylmethyl-7-{4-[(2,6-dimethylpyridin-3-yl)oxy]-3-fluorophenyl}[1,2,4]triazolo[4,3-a]pyridine]: the melting point is 207.2 °C. The EC50 at human mGluR2 receptor was 42.7 nM. Moreover, the 50% effective dose (ED50) in the data set on male Wiga Wistar rats (compound administered orally) turned out to be 24.6 mg/kg. Further, the ED50 in the data set on male NMRI mice (setting [1]) was determined as 18 mg/kg.

As to `CCOCc1nnc2c(C)c(-c3ccc(Oc4ccc(C)nc4C)c(F)c3)ccn12` [Co. No. 42, 8-Methyl-3-ethoxymethyl-7-{3-fluoro-4-[(2,6-dimethylpyridin-3-yl)oxy]phenyl}[1,2,4]triazolo[4,3-a]pyridine], the melting point is 144 °C. For the same compound, the EC50 on human mGluR2 receptor was 170 nM. Moreover, the “L.A.D. (lowest active dose) for significant (p<0.05) reduction of 2DG uptake in the hippocampus compared to memantine response” value with Male mice (C57BL/6) stood at 5 mg/kg. The ED50 in the data set with male NMRI mice (setting [2]) is 20 mg/kg.

`Fc1cc(-c2ccn3c(CC4CC4)nnc3c2C(F)(F)F)ccc1Oc1ccnc(C2CC2)c1` [Co. No. 46, 3-Cyclopropylmethyl-7-[4-(2-cyclopropyl-pyridin-4-yloxy)-3-fluoro-phenyl]-8-trifluoromethyl-[1,2,4]triazolo[4,3-a]pyridine] gave a melting point of 211.1 °C. Moreover, on human mGluR2 receptor, the EC50 is 17.8 nM. The “L.A.D. (lowest active dose) for significant (p<0.05) reduction of 2DG uptake in the hippocampus compared to memantine response” value with Male mice (C57BL/6) is reported as “≦10 mg/kg”. Besides, the ED50 in the data set with male NMRI mice (setting [2]) was 20 mg/kg.

For the compound `CCc1cc(Oc2ccc(-c3ccn4c(CC5CC5)nnc4c3Cl)cc2F)ccn1` [Co. No. 48, 3-Cyclopropylmethyl-7-[4-(2-ethyl-pyridin-4-yloxy)-3-fluoro-phenyl]-8-chloro-[1,2,4]triazolo[4,3-a]pyridine], the melting point is more than 300 °C. Further, the EC50 at human mGluR2 receptor is 145 nM. Besides, the “L.A.D. (lowest active dose) for significant (p<0.05) reduction of 2DG uptake in the hippocampus compared to memantine response” value with Male mice (C57BL/6) is listed as “≦10 mg/kg”. Moreover, in the data set with male NMRI mice (setting [2]), the ED50 is 12.6 mg/kg.

Regarding `FC(F)(F)c1c(-c2ccc(Oc3ccnc(C4CC4)c3)c(Cl)c2)ccn2c(CC3CC3)nnc12` [Co. No. 54], at human mGluR2 receptor, the “GTPγS -hR2 PAM pEC50” value stood at 8.38. Besides, the “ED50 CAR-Inh.” value in the data set with male Wiga Wistar rats (compound administered orally) is given as >40* mg/kg.

Turning to `COc1ccc(CNc2ccc(-c3ccn4c(CC5CC5)nnc4c3C(F)(F)F)cc2)cn1` [Co. No. 58], the “GTPγS -hR2 PAM pEC50” value on human mGluR2 receptor turned out to be 7.90. Besides, the “ED50 CAR-Inh.” value in the data set with male Wiga Wistar rats (compound administered orally) was “≧40*^ mg/kg”.

As to `Fc1cnccc1Oc1ccc(-c2ccn3c(CC4CC4)nnc3c2C(F)(F)F)cc1` [Co. No. 63], the “GTPγS -hR2 PAM pEC50” value at human mGluR2 receptor turned out to be 7.03. Further, the “ED50 PCP-Inh. (estimated)” value in the data set on male NMRI mice (mice, PCP 5 mg/kg s.c.) is given as 1.58^a) mg/kg.

For the compound `FC(F)(F)c1c(-c2ccc(N3CCNCC3)c(Cl)c2)ccn2c(CC3CC3)nnc12` [Co. No. 73], at human mGluR2 receptor, the “GTPγS -hR2 PAM pEC50” value was determined as 6.59. For the same compound, the “ED50 PCP-Inh. (estimated)” value in the data set with male NMRI mice (mice, PCP 5 mg/kg s.c.) is 12.6^a) mg/kg.

As to `O=C(CCCN1CCC(O)(c2ccc(Cl)cc2)CC1)c1ccc(F)cc1` [haloperidol, reference compound], in the data set on Male mice (C57BL/6) (mouse brain), the “effect on memantine-induced brain glucose metabolism / 2DG uptake (in words)” value was “inactive”.
